Assay results taken from ChEMBL document CHEMBL1156078, “Structure-activity relationship (SAR) studies of 3-(2-amino-ethyl)-5-(4-ethoxy-benzylidene)-thiazolidine-2,4-dione: development of potential substrate-specific ERK1/2 inhibitors” (Bioorg Med Chem Lett, 2009).
Calls of active or inactive are those of the source. The rule behind the calls is not given here.

Assays:
[1] = biological target: Ribosomal protein S6 kinase alpha-1 (Homo sapiens) (UniProt Q15418); test: Inhibition of Rsk1 phosphorylation in PMA-stimulated human U937 cells at 10 to 50 uM after 3 hrs by Western blotting; format: cell-based; settings: U-937
Chain of Ribosomal protein S6 kinase alpha-1 (Homo sapiens) (Q15418 whole entry, the tested form may be a part): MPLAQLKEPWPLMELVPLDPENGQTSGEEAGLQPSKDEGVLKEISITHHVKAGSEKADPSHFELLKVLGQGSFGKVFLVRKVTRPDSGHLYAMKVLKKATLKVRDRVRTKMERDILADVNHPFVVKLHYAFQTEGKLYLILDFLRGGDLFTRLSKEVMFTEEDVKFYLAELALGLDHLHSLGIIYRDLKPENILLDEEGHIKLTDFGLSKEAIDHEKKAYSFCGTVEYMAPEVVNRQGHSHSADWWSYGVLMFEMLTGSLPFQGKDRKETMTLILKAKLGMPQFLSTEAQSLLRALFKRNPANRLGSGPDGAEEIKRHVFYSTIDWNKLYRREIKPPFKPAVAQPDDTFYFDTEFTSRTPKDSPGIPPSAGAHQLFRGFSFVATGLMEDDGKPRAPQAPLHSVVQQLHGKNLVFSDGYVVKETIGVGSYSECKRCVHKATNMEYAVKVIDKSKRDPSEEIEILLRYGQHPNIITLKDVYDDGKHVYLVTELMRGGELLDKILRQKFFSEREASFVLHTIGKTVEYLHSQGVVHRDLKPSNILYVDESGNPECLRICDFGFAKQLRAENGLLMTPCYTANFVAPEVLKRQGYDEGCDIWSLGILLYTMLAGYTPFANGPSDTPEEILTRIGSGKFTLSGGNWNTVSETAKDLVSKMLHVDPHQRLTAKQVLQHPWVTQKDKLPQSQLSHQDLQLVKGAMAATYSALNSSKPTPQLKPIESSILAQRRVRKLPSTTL

[2] = biological target: T1, ETS domain-containing protein Elk-1 (Homo sapiens) (UniProt P19419); test: Inhibition of Elk1 phosphorylation in PMA-stimulated human U937 cells at 50 uM after 3 hrs by Western blotting; format: cell-based; settings: U-937
T1 sequence (whole entry): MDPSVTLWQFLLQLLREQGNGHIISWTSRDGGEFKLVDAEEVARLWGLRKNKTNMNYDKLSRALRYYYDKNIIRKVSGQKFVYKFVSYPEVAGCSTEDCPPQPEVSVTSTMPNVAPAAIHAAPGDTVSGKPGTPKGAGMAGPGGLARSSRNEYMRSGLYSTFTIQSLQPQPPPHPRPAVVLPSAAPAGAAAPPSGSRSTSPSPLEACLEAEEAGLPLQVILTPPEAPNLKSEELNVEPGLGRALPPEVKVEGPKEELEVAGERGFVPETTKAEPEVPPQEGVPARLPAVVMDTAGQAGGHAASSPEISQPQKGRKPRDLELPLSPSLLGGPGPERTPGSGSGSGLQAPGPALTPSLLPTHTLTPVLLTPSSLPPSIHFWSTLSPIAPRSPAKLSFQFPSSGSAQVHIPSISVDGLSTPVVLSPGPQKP

[3] = biological target: MAP kinase p38 (Homo sapiens) (UniProt O15264+Q15759+Q16539+P53778); test: Inhibition of p38 phosphorylation in PMA-stimulated human U937 cells at 50 uM after 3 hrs by Western blotting; format: cell-based; settings: U-937
[4] = biological target: Dual specificity mitogen-activated protein kinase kinase; MEK1/2 (Homo sapiens) (UniProt P36507+Q02750); test: Inhibition of MEK1/2 phosphorylation in PMA-stimulated human U937 cells at 50 uM after 3 hrs by Western blotting; format: cell-based; settings: U-937
Chain of Dual specificity mitogen-activated protein kinase kinase; MEK1/2 (Homo sapiens) (P36507 whole entry, looked up): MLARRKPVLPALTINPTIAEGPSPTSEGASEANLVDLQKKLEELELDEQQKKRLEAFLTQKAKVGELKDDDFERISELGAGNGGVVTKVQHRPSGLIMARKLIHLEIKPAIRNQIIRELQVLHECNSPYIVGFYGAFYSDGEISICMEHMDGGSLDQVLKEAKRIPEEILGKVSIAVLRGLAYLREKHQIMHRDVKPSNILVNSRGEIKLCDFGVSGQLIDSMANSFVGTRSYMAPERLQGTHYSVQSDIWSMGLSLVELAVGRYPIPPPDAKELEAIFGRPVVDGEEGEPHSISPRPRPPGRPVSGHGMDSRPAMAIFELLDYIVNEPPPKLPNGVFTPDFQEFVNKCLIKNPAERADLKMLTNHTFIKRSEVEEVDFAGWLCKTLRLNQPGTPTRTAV
Chain of Dual specificity mitogen-activated protein kinase kinase; MEK1/2 (Homo sapiens) (Q02750 whole entry, looked up): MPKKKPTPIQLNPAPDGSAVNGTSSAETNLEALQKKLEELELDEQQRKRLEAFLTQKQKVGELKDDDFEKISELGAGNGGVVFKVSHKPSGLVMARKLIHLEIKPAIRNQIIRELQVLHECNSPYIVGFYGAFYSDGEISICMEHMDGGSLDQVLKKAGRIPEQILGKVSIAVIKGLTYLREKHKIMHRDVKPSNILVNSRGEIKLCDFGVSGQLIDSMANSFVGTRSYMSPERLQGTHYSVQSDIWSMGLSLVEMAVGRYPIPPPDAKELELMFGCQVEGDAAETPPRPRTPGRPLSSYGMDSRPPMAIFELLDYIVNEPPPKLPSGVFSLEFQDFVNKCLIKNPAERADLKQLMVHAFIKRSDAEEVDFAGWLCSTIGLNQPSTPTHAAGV

[5] = biological target: Ribosomal protein S6 kinase alpha-1 (Homo sapiens) (UniProt Q15418); test: Inhibition of Rsk1 phosphorylation in PMA-stimulated human U937 cells at 50 uM after 3 hrs by Western blotting; format: cell-based; settings: U-937
[6] = biological target: T2, Mitogen-activated protein kinase; ERK1/ERK2 (Homo sapiens) (UniProt P27361+P28482); test: Inhibition of ERK1/2 phosphorylation in PMA-stimulated human U937 cells at 50 uM after 3 hrs by Western blotting; format: cell-based; settings: U-937
T2 sequence (P27361 whole entry, looked up): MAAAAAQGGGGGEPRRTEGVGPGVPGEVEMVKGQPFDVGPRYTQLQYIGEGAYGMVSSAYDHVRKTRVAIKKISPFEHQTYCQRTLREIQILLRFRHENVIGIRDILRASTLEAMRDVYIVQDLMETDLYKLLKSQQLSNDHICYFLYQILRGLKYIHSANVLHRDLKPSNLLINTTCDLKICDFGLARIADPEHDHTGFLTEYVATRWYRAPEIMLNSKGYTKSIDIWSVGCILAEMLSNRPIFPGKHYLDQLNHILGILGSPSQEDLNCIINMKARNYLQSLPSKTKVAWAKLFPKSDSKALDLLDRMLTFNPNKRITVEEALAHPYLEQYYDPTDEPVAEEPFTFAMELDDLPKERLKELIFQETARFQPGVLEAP
T2 sequence (P28482 whole entry, looked up): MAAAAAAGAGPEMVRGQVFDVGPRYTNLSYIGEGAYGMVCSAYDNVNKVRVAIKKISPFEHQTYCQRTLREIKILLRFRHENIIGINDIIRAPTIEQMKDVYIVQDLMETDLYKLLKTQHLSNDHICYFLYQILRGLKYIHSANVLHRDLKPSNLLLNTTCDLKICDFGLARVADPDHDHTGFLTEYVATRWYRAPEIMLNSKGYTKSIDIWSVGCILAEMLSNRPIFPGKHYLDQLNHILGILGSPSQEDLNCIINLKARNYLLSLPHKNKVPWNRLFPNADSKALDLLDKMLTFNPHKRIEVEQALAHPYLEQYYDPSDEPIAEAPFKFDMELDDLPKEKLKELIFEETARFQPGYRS

U-937 [7] = test: Induction of apoptosis in human U937 assessed as loss of mitochondrial membrane potential after 18 hrs by DiOC6 uptake assay; format: functional, cell-based
[8] = biological target: T2, Mitogen-activated protein kinase; ERK1/ERK2 (Homo sapiens); test: Inhibition of ERK1/2 phosphorylation in PMA-stimulated human U937 cells at 10 to 50 uM after 3 hrs by Western blotting; format: cell-based; settings: U-937
[9] = biological target: T2, Mitogen-activated protein kinase; ERK1/ERK2 (Homo sapiens); test: Inhibition of ERK1/2 phosphorylation in EGF-stimulated human SKOV3 cells; format: cell-based; settings: SK-OV-3
U-937 [10] = test: Antiproliferative activity human U937 cells by [3H]thymidine incorporation assay; format: functional, cell-based
[11] = Inhibition of MEK phosphorylation
[12] = Inhibition of JNK phosphorylation
U-937 [13] = test: Cytotoxicity against human U937 cells assessed as cell viability up to 30 uM after 24 hrs by MTT assay; format: functional, cell-based
[14] = biological target: Mitogen-activated protein kinase 1 (Homo sapiens) (UniProt P28482); test: Inhibition of recombinant ERK2-mediated myelin basic protein phosphorylation at 50 uM after 30 mins by SDS-PAGE
Chain of Mitogen-activated protein kinase 1 (Homo sapiens) (P28482 whole entry): as the sequence (P28482 whole entry, looked up) above

For NCCN1C(=O)S/C(=C\c2ccc(F)cc2)C1=O, which inhibition [1] is on record?
Its inhibition is “inactive”.

For CCOc1ccc(/C=C2\SC(=O)N(CCN(C)C)C2=O)cc1, which inhibition [1] is on record?
The inhibition was “inactive”.

What does the source list for NCCN1C(=O)S/C(=C\c2ccc3c(c2)OCCO3)C1=O?
inhibition [2]: Active; inhibition [3]: Active; inhibition [4]: Active; inhibition [5]: Active; inhibition [6]: Active; Activity (U-937 [7]): inactive

With NCCN1C(=O)S/C(=C\c2ccc(-c3ccc(Cl)cc3)cc2)C1=O as the molecule, how does the inhibition [8] read?
Its inhibition is “inactive”.

What about the inhibition [1] of the same molecule?
The inhibition was “Active”.

For NCCN1C(=O)S/C(=C\[C@H](O)[C@@H](O)c2ccccc2)C1=O, which inhibition [6] is on record?
Its inhibition is “inactive”.

With CCOc1ccccc1/C=C1\SC(=O)N(CCN)C1=O as the molecule, how does the inhibition [2] read?
Its inhibition is “Active”.

What about the inhibition [3] of the same molecule?
The inhibition was “inactive”.

What about the inhibition [9] of the same molecule?
Its inhibition is “inactive”.

And the Activity (U-937 [10])?
Its Activity is “Dose-dependent effect”.

What about the inhibition [8] of the same molecule?
The inhibition was “inactive”.

What about the Activity (U-937 [7]) of the same molecule?
The Activity was “Dose-dependent effect”.

What about the inhibition [11] of the same molecule?
The inhibition was “inactive”.

And the inhibition [12]?
Its inhibition is “inactive”.

And the Activity (U-937 [13])?
The Activity was “inactive”.

And the inhibition [14]?
Its inhibition is “inactive”.

What about the inhibition [1] of the same molecule?
Its inhibition is “Active”.

Which results are given for Cc1ccc(/C=C2\SC(=O)N(CCN)C2=O)cc1?
inhibition [8]: inactive; inhibition [1]: inactive

With COc1ccc(/C=C2\SC(=O)N(CCN)C2=O)cc1 as the molecule, how does the inhibition [8] read?
Its inhibition is “inactive”.

What about the inhibition [1] of the same molecule?
Its inhibition is “inactive”.

With NCCN1C(=O)S/C(=C\c2ccc([N+](=O)[O-])cc2)C1=O as the molecule, how does the inhibition [1] read?
Its inhibition is “inactive”.

Which results are given for NCCN1C(=O)S/C(=C\c2ccccc2)C1=O?
inhibition [8]: inactive; inhibition [1]: inactive

For CCOc1cccc(/C=C2\SC(=O)N(CCN)C2=O)c1, which inhibition [8] is on record?
The inhibition was “inactive”.

What about the inhibition [1] of the same molecule?
Its inhibition is “inactive”.

Which inhibition [2] does the source give for CN(C)CCN1C(=O)S/C(=C\C/C=C/c2ccccc2)C1=O here?
The inhibition was “Active”.

And the inhibition [3]?
The inhibition was “inactive”.

What about the inhibition [5] of the same molecule?
The inhibition was “Active”.

What about the inhibition [6] of the same molecule?
The inhibition was “Active”.

Which inhibition [1] does the source give for NCCN1C(=O)S/C(=C\c2cccc([N+](=O)[O-])c2)C1=O here?
Its inhibition is “inactive”.

Which inhibition [3] does the source give for CCOc1ccc(/C=C2\SC(=O)N(CCN)C2=O)cc1 here?
Its inhibition is “inactive”.

And the inhibition [9]?
The inhibition was “inactive”.

And the inhibition [5]?
Its inhibition is “Active”.

What about the inhibition [6] of the same molecule?
The inhibition was “inactive”.

And the inhibition [11]?
Its inhibition is “inactive”.

And the inhibition [12]?
Its inhibition is “inactive”.

And the Activity (U-937 [13])?
The Activity was “inactive”.

What about the inhibition [14] of the same molecule?
The inhibition was “inactive”.

For NCCN1C(=O)S/C(=C\c2cccc(F)c2)C1=O, which inhibition [1] is on record?
The inhibition was “inactive”.

Which inhibition [1] does the source give for CCOc1ccc(/C=C2\SC(=O)N(CCNC(C)=O)C2=O)cc1 here?
Its inhibition is “inactive”.

Which inhibition [2] does the source give for NCCN1C(=O)S/C(=C\c2cccc3ccccc23)C1=O here?
Its inhibition is “Active”.

What about the inhibition [3] of the same molecule?
Its inhibition is “Active”.

And the inhibition [4]?
The inhibition was “Active”.

And the inhibition [5]?
The inhibition was “Active”.

And the inhibition [6]?
Its inhibition is “Active”.

What about the Activity (U-937 [7]) of the same molecule?
Its Activity is “inactive”.
